For orientation: GI50 means the concentration at which growth is held to half of that of the control. The TGI is the concentration giving total growth inhibition. Higher therefore signals less potent growth arrest.

We go through 13 compounds from PubChem BioAssay (NCI).

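Exposure lasted 48 hours, with cells grown in 96-well plates and compounds tested at five concentrations. Abbreviation: GI50, concentration required for 50% inhibition of growth. Definition used: TGI = concentration required for complete inhibition of growth.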

Some test systems named below: CAKI-1 renal; COLO 205 colon; HCT-15 colon; HS 578T breast; HT29 colon; IGROV1 ovarian; MDA-MB-435; OVCAR-4 ovarian; SK-MEL-5 melanoma; SW-620 colon.
Common to all, as to experiment: DTP human tumour cell line panel, 48 h

For `NC(=O)c1cccc(N)c1`, the GI50 with CAKI-1 renal, with COLO 205 colon, with HCT-15 colon, in the assay on HS 578T breast, in the assay with HT29 colon and in the assay on IGROV1 ovarian was more than 100 µM in each case. Moreover, the GI50 in the assay on MDA-MB-435, in the assay with OVCAR-4 ovarian, in the assay on SK-MEL-5 melanoma and in the assay on SW-620 colon was more than 100 µM each time. Besides, the TGI in the assay on CAKI-1 renal, in the assay on COLO 205 colon, in the assay with HCT-15 colon, with HS 578T breast, in the assay with HT29 colon and in the assay with IGROV1 ovarian was more than 100 µM each time. Further, the TGI in the assay on MDA-MB-435, in the assay with OVCAR-4 ovarian, with SK-MEL-5 melanoma and with SW-620 colon was more than 100 µM each time.
As to `Cc1ccccc1NC(=O)N/C(N)=N/c1nc2ccccc2s1`, the 50% growth inhibitory concentration (GI50) is 0.0499 µM in the assay on CAKI-1 renal; 0.0514 µM in the assay with COLO 205 colon; 0.0434 µM in the assay with HCT-15 colon; 0.0494 µM in the assay on HS 578T breast; 0.039 µM with HT29 colon; 0.0796 µM with IGROV1 ovarian. For the same compound, the GI50 was 0.0208 µM in the assay with MDA-MB-435, 0.667 µM in the assay with OVCAR-4 ovarian, 0.065 µM with SK-MEL-5 melanoma and 0.0427 µM with SW-620 colon. In addition, the TGI is more than 100 µM in the assay on CAKI-1 renal; 4.28 µM with COLO 205 colon; more than 100 µM in the assay with HCT-15 colon; more than 100 µM in the assay with HS 578T breast; more than 100 µM with HT29 colon; more than 100 µM in the assay with IGROV1 ovarian. The concentration for total growth inhibition (TGI) in the assay with MDA-MB-435 is 0.0553 µM; with OVCAR-4 ovarian, more than 100 µM; with SK-MEL-5 melanoma, 2.07 µM; with SW-620 colon it was more than 100 µM.
Regarding `CN(C)c1cc2c(Nc3ccc4nc(Cc5ccccc5)[nH]c4c3)ncnc2cn1`, the GI50 with CAKI-1 renal is 9.82 µM; in the assay on COLO 205 colon, more than 25 µM; in the assay on HCT-15 colon, more than 16.6 µM; in the assay on HS 578T breast, more than 17.6 µM; in the assay with HT29 colon it was 11.9 µM; with IGROV1 ovarian, 9.21 µM. Also, the GI50 in the assay on MDA-MB-435 was more than 20.9 µM; in the assay on OVCAR-4 ovarian it was more than 20.4 µM; in the assay with SK-MEL-5 melanoma it was 8.99 µM; in the assay with SW-620 colon it was more than 21.5 µM. The total growth inhibition concentration (TGI) was more than 25 µM in the assay on CAKI-1 renal; more than 25 µM with COLO 205 colon; more than 25 µM in the assay with HCT-15 colon; more than 25 µM in the assay with HS 578T breast; more than 23 µM in the assay on HT29 colon; more than 25 µM in the assay on IGROV1 ovarian. Moreover, the TGI in the assay with MDA-MB-435 was more than 25 µM; in the assay with OVCAR-4 ovarian, more than 25 µM; with SK-MEL-5 melanoma it was more than 16 µM; with SW-620 colon, more than 25 µM.
For the compound `N#CC(NC12CC3CC(CC(C3)C1)C2)c1ccccc1` (stereo not given), the TGI with CAKI-1 renal, in the assay with COLO 205 colon, in the assay on HCT-15 colon, with HS 578T breast, in the assay on HT29 colon and in the assay with IGROV1 ovarian was more than 100 µM in each case. In addition, the TGI in the assay with MDA-MB-435, with OVCAR-4 ovarian, with SK-MEL-5 melanoma and with SW-620 colon was more than 100 µM throughout.
Regarding `C[CH2][Sn]1([CH2]C)[O]C2C(O)OC(CO)C(O)C2[O]1` (stereo not given), the GI50 in the assay with CAKI-1 renal was 31.1 µM; with COLO 205 colon it was 35.2 µM; with HCT-15 colon, 60.3 µM; with HS 578T breast it was 25.9 µM; in the assay with HT29 colon it was 65 µM; with IGROV1 ovarian, 38.7 µM. For the same compound, the GI50 in the assay with MDA-MB-435 is 52.6 µM; in the assay with OVCAR-4 ovarian, 14.8 µM; in the assay on SK-MEL-5 melanoma, 34.1 µM; with SW-620 colon, 20.2 µM. Moreover, the concentration for total growth inhibition (TGI) in the assay with CAKI-1 renal, in the assay on COLO 205 colon, in the assay on HCT-15 colon, in the assay with HS 578T breast, in the assay with HT29 colon and with IGROV1 ovarian was more than 100 µM throughout. Besides, the TGI in the assay with MDA-MB-435 is more than 100 µM; in the assay on OVCAR-4 ovarian it was 36.9 µM; in the assay with SK-MEL-5 melanoma, more than 100 µM; in the assay on SW-620 colon, 46.4 µM.
As to `O=[N+]([O-])c1ccccc1S(=O)(=O)c1ccccc1[N+](=O)[O-]`, the TGI with CAKI-1 renal, in the assay on COLO 205 colon, with HCT-15 colon, with HS 578T breast, in the assay with HT29 colon and with IGROV1 ovarian was more than 100 µM in each case. Moreover, the TGI in the assay on MDA-MB-435 was more than 100 µM; in the assay on OVCAR-4 ovarian it was more than 100 µM; in the assay on SK-MEL-5 melanoma, more than 56.2 µM; in the assay on SW-620 colon, more than 56.2 µM.
As for `O=C(O[C@H]1CN[C@H](C#Cc2cc3ncnc(Nc4ccc(Cc5ccccc5)cc4)c3s2)C1)N1CCOCC1`, the GI50 with CAKI-1 renal is 2.08 µM; with COLO 205 colon it was 5.37 µM; with HCT-15 colon, 7.08 µM; in the assay with HS 578T breast, 3.06 µM; in the assay with HT29 colon it was 4.71 µM; in the assay with IGROV1 ovarian, 2.45 µM. In addition, the GI50 in the assay with MDA-MB-435 was 6.33 µM; with OVCAR-4 ovarian, 6.22 µM; in the assay on SK-MEL-5 melanoma, 4.23 µM; in the assay on SW-620 colon it was 5.93 µM. Further, the concentration for total growth inhibition (TGI) is more than 24.1 µM with CAKI-1 renal; 13.1 µM in the assay with COLO 205 colon; more than 25 µM with HCT-15 colon; more than 21.7 µM in the assay with HS 578T breast; 10.7 µM with HT29 colon; more than 20.1 µM in the assay on IGROV1 ovarian. For the same compound, the TGI in the assay with MDA-MB-435 was more than 22.5 µM; in the assay with OVCAR-4 ovarian it was more than 25 µM; with SK-MEL-5 melanoma, 8.83 µM; in the assay on SW-620 colon, 17.7 µM.
For `Oc1ccc(Cl)cc1Cc1cc(Cl)cc(Cc2cc(Cl)ccc2O)c1O`, the TGI with CAKI-1 renal was found to be 13 µM; in the assay on COLO 205 colon, 3.25 µM; in the assay with HCT-15 colon, 12.2 µM; with HS 578T breast it was 7.71 µM; in the assay with HT29 colon it was 10.4 µM; with IGROV1 ovarian, 13.5 µM. Also, the TGI is 9.3 µM in the assay with MDA-MB-435, 16.2 µM with OVCAR-4 ovarian, 2.56 µM in the assay with SK-MEL-5 melanoma and 13.5 µM with SW-620 colon.
Regarding `O=C(c1ccc(F)c(F)c1Nc1ccc(I)cc1F)N1CC(O)([C@H]2CCCCN2)C1`, the GI50 is 6.28 µM in the assay with CAKI-1 renal; 0.0735 µM with COLO 205 colon; 4.81 µM with HCT-15 colon; 9.74 µM in the assay with HS 578T breast; 0.0894 µM with HT29 colon; 1.43 µM in the assay with IGROV1 ovarian. Further, the GI50 in the assay on MDA-MB-435 is 0.161 µM; in the assay with OVCAR-4 ovarian it was 3.81 µM; in the assay on SK-MEL-5 melanoma, 0.668 µM; in the assay on SW-620 colon, 0.34 µM. Moreover, the concentration for total growth inhibition (TGI) with CAKI-1 renal came to 20.3 µM; in the assay with COLO 205 colon, 4.1 µM; in the assay with HCT-15 colon, 19.3 µM; in the assay on HS 578T breast, 33.7 µM; in the assay on HT29 colon, 10.9 µM; in the assay with IGROV1 ovarian, 13.9 µM. Also, the TGI is 15.8 µM with MDA-MB-435, 17.7 µM in the assay with OVCAR-4 ovarian, 6.06 µM in the assay on SK-MEL-5 melanoma and 15 µM in the assay with SW-620 colon.
As for `O=C(/C=C\c1cccc([N+](=O)[O-])c1)c1ccccc1`, the GI50 is 2.53 µM in the assay with CAKI-1 renal; 2.04 µM in the assay with COLO 205 colon; 2.16 µM in the assay on HCT-15 colon; 5.97 µM with HS 578T breast; 2.77 µM in the assay on HT29 colon; 2.62 µM in the assay with IGROV1 ovarian. Moreover, the GI50 in the assay on MDA-MB-435 was 3.53 µM; in the assay with OVCAR-4 ovarian, 3.38 µM; in the assay with SK-MEL-5 melanoma, 6.97 µM; in the assay on SW-620 colon, 1.81 µM. Also, the concentration for total growth inhibition (TGI) is 5.8 µM in the assay with CAKI-1 renal; 4.12 µM in the assay on COLO 205 colon; 5.95 µM in the assay with HCT-15 colon; 61 µM in the assay with HS 578T breast; more than 100 µM in the assay with HT29 colon; more than 28.6 µM in the assay with IGROV1 ovarian. The total growth inhibition concentration (TGI) in the assay on MDA-MB-435 came out at 14.4 µM; in the assay with OVCAR-4 ovarian it was 12.6 µM; in the assay on SK-MEL-5 melanoma, 20.2 µM; in the assay with SW-620 colon, 5.82 µM.
Take `N#Cc1cc(-c2ccccc2)[nH]c1-c1nccc2ccccc12`: the GI50 in the assay with CAKI-1 renal is 12.5 µM; in the assay on COLO 205 colon, 11.7 µM; in the assay with HCT-15 colon it was 20.6 µM; in the assay on HS 578T breast, 37.6 µM; in the assay on HT29 colon, 30.5 µM; in the assay with IGROV1 ovarian, 23.3 µM. The GI50 in the assay with MDA-MB-435 was 10.5 µM; in the assay on OVCAR-4 ovarian, 3.43 µM; with SK-MEL-5 melanoma, 3.58 µM; in the assay on SW-620 colon, 61.5 µM. The concentration for total growth inhibition (TGI) in the assay on CAKI-1 renal was more than 100 µM; with COLO 205 colon, 33.2 µM; in the assay with HCT-15 colon it was more than 100 µM; with HS 578T breast, more than 100 µM; in the assay with HT29 colon, more than 100 µM; in the assay on IGROV1 ovarian, more than 100 µM. For the same compound, the TGI in the assay with MDA-MB-435 is 78.1 µM; in the assay on OVCAR-4 ovarian, more than 100 µM; in the assay with SK-MEL-5 melanoma, 15.2 µM; with SW-620 colon, more than 100 µM.
For `Cn1c(=O)c(Sc2ccccc2F)cc2cnc(NC3CCOCC3)nc21`, the GI50 with CAKI-1 renal, with COLO 205 colon, with HCT-15 colon, with HS 578T breast, in the assay with HT29 colon and with IGROV1 ovarian was more than 25 µM throughout. In addition, the GI50 in the assay with MDA-MB-435, with OVCAR-4 ovarian, with SK-MEL-5 melanoma and in the assay on SW-620 colon was more than 25 µM each time. For the same compound, the TGI in the assay with CAKI-1 renal, in the assay with COLO 205 colon, in the assay on HCT-15 colon, in the assay with HS 578T breast, in the assay with HT29 colon and in the assay with IGROV1 ovarian was more than 25 µM throughout. The TGI in the assay with MDA-MB-435, in the assay on OVCAR-4 ovarian, with SK-MEL-5 melanoma and in the assay with SW-620 colon was more than 25 µM each time.
With `O=C(/C=C/c1ccccc1Cl)c1ccc(O)cc1`, the GI50 was 6.87 µM in the assay with CAKI-1 renal; 12.8 µM with COLO 205 colon; 2.48 µM in the assay on HCT-15 colon; 2.33 µM with HS 578T breast; 4.72 µM in the assay on HT29 colon; 2.25 µM in the assay on IGROV1 ovarian. Besides, the GI50 is 4.23 µM with MDA-MB-435, 10.6 µM with OVCAR-4 ovarian, 9.57 µM in the assay on SK-MEL-5 melanoma and 2.89 µM with SW-620 colon. Moreover, the concentration for total growth inhibition (TGI) in the assay with CAKI-1 renal amounted to 20.2 µM; with COLO 205 colon, 34.8 µM; in the assay on HCT-15 colon, 11.1 µM; in the assay with HS 578T breast, 7.19 µM; in the assay on HT29 colon, 17.4 µM; with IGROV1 ovarian, 5.25 µM. Besides, the TGI in the assay on MDA-MB-435 came out at 17.6 µM; in the assay with OVCAR-4 ovarian, 24.9 µM; with SK-MEL-5 melanoma, 23.4 µM; in the assay on SW-620 colon, 7.88 µM.
